What was measured:
LNCap cells = experiment: Cell viability assay (CellTiterGlo); type: cell-based; conditions: Homo sapiens, 144 h, read-out: LNCap (IC50, nM)
T47D cells = experiment: Cell viability assay (CellTiterGlo); type: cell-based; conditions: Homo sapiens, 144 h, read-out: T47D (IC50, nM)
[1] = molecular target: T1, Progesterone Receptor (PR)-LBD and coactivator peptide (Homo sapiens, UniProt P06401); experiment: PR coactivator antagonist assay; conditions: 2.5 nM PR-LBD, 10 nM progesterone-induced fluorescence response
T1 sequence (P06401 679-913 limits assumed): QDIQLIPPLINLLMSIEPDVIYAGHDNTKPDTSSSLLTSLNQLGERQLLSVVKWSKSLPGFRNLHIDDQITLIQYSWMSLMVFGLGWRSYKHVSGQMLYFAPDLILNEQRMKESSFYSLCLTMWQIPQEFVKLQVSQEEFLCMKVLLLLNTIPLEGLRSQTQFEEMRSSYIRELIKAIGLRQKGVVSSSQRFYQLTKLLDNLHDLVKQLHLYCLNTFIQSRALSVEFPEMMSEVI

IEC6 cells = experiment: Cell viability assay (CellTiterGlo); conditions: Rattus norvegicus, IEC-6, 144 h, read-out: IEC-6 (IC50, nM)
[2] = molecular target: T2, AR (cytosol from LnCaP cells) (Homo sapiens, UniProt P10275, T878A); experiment: AR binding assay (3H-R1881 displacement)
T2 sequence (P10275 1-920 T878A): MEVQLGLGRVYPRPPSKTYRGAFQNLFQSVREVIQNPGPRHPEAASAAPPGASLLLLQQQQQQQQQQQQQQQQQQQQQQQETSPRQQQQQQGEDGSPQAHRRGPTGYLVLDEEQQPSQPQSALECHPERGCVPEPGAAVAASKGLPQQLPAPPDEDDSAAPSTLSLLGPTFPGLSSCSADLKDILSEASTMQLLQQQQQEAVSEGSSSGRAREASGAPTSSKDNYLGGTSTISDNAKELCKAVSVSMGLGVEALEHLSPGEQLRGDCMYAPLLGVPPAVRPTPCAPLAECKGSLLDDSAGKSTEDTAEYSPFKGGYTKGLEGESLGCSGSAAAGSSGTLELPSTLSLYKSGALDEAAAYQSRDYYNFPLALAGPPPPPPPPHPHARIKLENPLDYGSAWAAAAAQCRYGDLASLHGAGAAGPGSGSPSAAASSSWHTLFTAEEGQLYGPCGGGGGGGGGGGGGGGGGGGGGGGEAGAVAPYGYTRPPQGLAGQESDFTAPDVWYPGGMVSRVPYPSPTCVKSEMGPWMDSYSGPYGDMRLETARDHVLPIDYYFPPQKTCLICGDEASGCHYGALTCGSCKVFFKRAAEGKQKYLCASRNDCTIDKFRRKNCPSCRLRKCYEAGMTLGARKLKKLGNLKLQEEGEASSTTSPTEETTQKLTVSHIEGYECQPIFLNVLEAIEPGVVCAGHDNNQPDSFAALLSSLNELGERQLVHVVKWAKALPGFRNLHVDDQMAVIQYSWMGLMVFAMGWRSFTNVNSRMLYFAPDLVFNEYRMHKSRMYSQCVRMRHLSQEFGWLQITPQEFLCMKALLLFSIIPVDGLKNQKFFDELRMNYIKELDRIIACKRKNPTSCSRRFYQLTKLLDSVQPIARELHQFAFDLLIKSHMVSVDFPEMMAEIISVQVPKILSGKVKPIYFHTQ
Description: The plate was then centrifuged at 3000 rpm for 30 minutes at 4° C.

[3] = molecular target: T3, ligand binding domain of the glucocorticoid receptor (HEK293 cells stably expressing) (Homo sapiens, UniProt P04150); experiment: GR antagonism assay (luciferase reporter)
T3 sequence (P04150 524-758 limits assumed): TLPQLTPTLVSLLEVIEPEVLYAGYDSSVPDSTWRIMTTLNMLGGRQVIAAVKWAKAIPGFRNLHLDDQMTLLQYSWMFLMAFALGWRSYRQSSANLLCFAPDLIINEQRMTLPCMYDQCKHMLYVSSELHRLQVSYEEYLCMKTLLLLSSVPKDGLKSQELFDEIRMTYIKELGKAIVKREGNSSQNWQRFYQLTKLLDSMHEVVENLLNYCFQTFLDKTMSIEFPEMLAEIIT

[4] = molecular target: T4, GR (cytosol from IM-9 cells) (Homo sapiens, UniProt P04150); experiment: GR binding assay (3H-Dexamethasone displacement)
T4 sequence (P04150 1-777): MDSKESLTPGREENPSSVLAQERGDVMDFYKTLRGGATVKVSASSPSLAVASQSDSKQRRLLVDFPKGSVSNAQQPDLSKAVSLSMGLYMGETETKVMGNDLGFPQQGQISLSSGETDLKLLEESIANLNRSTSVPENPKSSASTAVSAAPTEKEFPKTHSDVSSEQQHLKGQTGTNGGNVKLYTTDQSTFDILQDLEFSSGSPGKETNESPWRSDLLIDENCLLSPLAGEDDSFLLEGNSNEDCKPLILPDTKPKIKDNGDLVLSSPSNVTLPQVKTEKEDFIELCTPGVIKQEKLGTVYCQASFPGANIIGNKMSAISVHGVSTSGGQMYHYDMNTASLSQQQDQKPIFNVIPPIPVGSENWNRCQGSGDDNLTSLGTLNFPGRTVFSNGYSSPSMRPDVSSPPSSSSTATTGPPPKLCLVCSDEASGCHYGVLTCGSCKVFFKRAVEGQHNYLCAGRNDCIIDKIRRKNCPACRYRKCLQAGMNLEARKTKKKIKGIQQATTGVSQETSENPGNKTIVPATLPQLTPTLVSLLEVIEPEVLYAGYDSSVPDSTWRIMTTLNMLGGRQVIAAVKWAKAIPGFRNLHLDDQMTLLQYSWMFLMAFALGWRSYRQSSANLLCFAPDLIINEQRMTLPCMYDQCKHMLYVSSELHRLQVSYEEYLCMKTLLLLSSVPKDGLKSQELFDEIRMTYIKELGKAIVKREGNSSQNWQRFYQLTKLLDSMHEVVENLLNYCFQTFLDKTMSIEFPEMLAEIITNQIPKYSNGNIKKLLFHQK

[5] = molecular target: T5, Progesterone PR-B receptors from human breast carcinoma T47D cells (Homo sapiens, UniProt P06401); experiment: PR binding assay ([3H] Progesterone displacement)
T5 sequence (P06401 1-933): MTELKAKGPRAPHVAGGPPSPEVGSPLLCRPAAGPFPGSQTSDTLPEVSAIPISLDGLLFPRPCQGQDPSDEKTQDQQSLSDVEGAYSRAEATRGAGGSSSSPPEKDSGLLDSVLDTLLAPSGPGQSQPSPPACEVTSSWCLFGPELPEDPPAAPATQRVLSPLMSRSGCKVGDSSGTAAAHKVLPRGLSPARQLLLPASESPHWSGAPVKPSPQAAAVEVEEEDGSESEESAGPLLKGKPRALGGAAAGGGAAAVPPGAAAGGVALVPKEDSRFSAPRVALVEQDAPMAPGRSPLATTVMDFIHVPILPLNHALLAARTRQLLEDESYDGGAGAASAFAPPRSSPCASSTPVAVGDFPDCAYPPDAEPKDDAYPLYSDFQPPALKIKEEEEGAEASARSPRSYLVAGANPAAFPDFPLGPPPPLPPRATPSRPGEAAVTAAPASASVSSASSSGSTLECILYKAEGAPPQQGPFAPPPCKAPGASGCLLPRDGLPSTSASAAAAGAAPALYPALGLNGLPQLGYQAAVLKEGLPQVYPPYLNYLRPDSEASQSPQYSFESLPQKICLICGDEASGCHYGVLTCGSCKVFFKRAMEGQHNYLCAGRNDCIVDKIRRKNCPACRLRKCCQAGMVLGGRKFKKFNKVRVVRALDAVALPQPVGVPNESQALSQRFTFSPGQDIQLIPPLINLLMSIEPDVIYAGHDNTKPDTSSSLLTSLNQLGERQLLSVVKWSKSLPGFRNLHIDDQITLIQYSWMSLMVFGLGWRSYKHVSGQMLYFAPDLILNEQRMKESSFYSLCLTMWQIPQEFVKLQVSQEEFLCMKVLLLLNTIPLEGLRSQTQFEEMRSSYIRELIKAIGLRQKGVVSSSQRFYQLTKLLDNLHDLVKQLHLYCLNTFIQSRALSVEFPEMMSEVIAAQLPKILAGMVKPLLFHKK

SMILES | IC50 (LNCap cells) | IC50 (T47D cells) | PR antagonism [1] | IC50 (IEC6 cells) | IC50 [2] | IC50 [3] | IC50 [4] | IC50 [5]
CCCCCCC(=O)O[C@]1(CC)C(=O)OCc2c1cc1n(c2=O)Cc2cc3c(CN(C)C)c(OC(=O)N4CCN(CCCCCCN(C)c5ccc([C@H]6C[C@@]7(C)[C@@H](CC[C@]7(OC(C)=O)C(C)=O)[C@@H]7CCC8=CC(=O)CCC8=C76)cc5)CC4)ccc3nc2-1 [Compound No. 12, (S)-10-((Dimethylamino)methyl)-4-ethyl-4-(heptanoyloxy)-3,14-dioxo-3,4,12,14-tetrahydro-1H-pyrano[3′,4′:6,7]indolizino[1,2-b]quinolin-9-yl 4-(6-((4-((8S,11R,13S,14S,17R)-17-acetoxy-17-acetyl-13-methyl-3-oxo-2,3,6,7,8,11,12,13,14,15,16,17-dodecahydro-1H-cyclopenta[a]phenanthren-11-yl)phenyl)(methyl)amino)hexyl)piperazine-1-carboxylate] | > 1000 nM | > 1000 nM | a (IC50 =< 10 nM) | > 1000 nM | 101 to 1000 nM | 10 to 100 nM | < 10 nM | < 10 nM
CC[C@@]1(O)C(=O)OCc2c1cc1n(c2=O)Cc2cc3c(CN(C)C)c(OC(=O)N4C5CC4CN(CCCCCCN(C)c4ccc([C@H]6C[C@@]7(C)[C@@H](CC[C@]7(OC(C)=O)C(C)=O)[C@@H]7CCC8=CC(=O)CCC8=C76)cc4)C5)ccc3nc2-1 [Compound 3, (S)-10-((Dimethylamino)methyl)-4-ethyl-4-hydroxy-3,14-dioxo-3,4,12,14-tetrahydro-1H-pyrano[3′,4′:6,7]indolizino[1,2-b]quinolin-9-yl 3-(6-((4-((8S,11R,13S,14S,17R)-17-acetoxy-17-acetyl-13-methyl-3-oxo-2,3,6,7,8,11,12,13,14,15,16,17-dodecahydro-1H-cyclopenta[a]phenanthren-11-yl)phenyl)(methyl)amino)hexyl)-3,6-diazabicyclo[3.1.1]heptane-6-carboxylate] | 101 to 1000 nM | 10 to 100 nM | a (IC50 =< 10 nM) | > 1000 nM | 10 to 100 nM | 10 to 100 nM | < 10 nM | < 10 nM
